Here are results for 15 molecules from US6916845B2, “Method for prevention and treatment of male and female sexual dysfunction” (priority 1999, dated 2005).

For series [1], the system named is rabbit's CC smooth muscle. The series is described as follows: Relaxation of PHE pre-contracted corpus cavernosum smooth muscle strips in organ chamber. Format: cell-based. Conditions: for effect of pre-treatment on the relaxation effects of icariin: pre-treatment before icariin. How it is done: Sixty adults male New Zealand white rabbits(Weight: 2.5-3.0 kg) were used. Rabbits were anesthesia with sodium pentobarbital(50 mg/kg), penis was removed and corpus cavernous tissue were carefully isolated and made into 2×2×6 mm muscle strips for isometric tension was measured in organ chamber in vitro study with polygraph(MP 100 WS:Biopac systems, USA). CC muscle strip was fixed in 10 ml organ chamber containing Tyrode solution and continuously supplied with mixed gas(95% O2 and 5% CO2) and keep temperature at 37° C. The initial resting tensions of muscle strips were set at 2 g and tissue was allowed to equilibrate for 1.5-3.0 hours. Sub-maximal contractile responses to phenylepherine(PHE 5×10^-6 M) were observed and optimal isometric tension was determined. To evaluate the relaxation effects of icariin (the other components magnoflorine, querectin, epimedin A, B and C as the controls) on CC muscle strips, investigated the relaxation effects of different dosage of icariin on muscle strips pre-contracted by PHE. And to investigate the pharmaceutical action mechanism, the effects of […] Nω-nitric-L-arginine(L-NNA), guanylate cyclase antagonist methylene blue and pyrogallol, soluble guanylate cyclase inhibitor 1H-[1,2,4]oxadiazolo[4,3,-a]quinoxalin-1-one (ODQ) on the relaxation effects of icariin on CC.

Series [2] concerns adult male rat. Kind of series: Intracavernosal press (ICP) changes after intracavernosal administration and cavernous nerve electrical stimulation. It is filed as in vivo. Conditions: for Inhibiting Effect on Icariin induced Relaxation of CC. (ICP changes): 10 minutes after Icariin 100 μl 10^−4M. How it is done:
Twenty-four male, adult Wistar rats(weight:300-350 g) were used. After anesthetization, the left carotid artery was cannulated to monitor mean arterial pressure (MAP). Bipolar electrodes were positioned on the cavernous nerve (CN); the right cavernous body was cannulated with 26 G needle connected with Biopack MP100 to monitor ICP changes. After intracavemosal administration of 100 μl different concentration Icariin or Reserpine (10^−8M to 10^−4M) respectively, the CN was electrically stimulated (ES) 10 minutes later and ICP and MAP were monitored. In order to investigate the possible mechanism of the effect of icariin on ICP changes, 100 μl different concentration guanylate cyclase inhibitor ODQ (10^−8M-10^−4M) were intracavemosal administrated 10 minutes after Icariin (100 μl 10^−4M) administration into CC, and then the ICP was measured during erection, which was, followed the ES.

Series [3] deals with cGMP formation in rabbit corpus cavernosum. The series is described as follows: cGMP formation in corpus cavernosum of penis stimulated with SNP, radioimmunoassay. It is filed as cell-based. Conditions: in the presence of SNP.
In series [4] the test system is patients. Conditions: patients on antihypertensive agent; cited from earlier work.
In series [5] the test system is cGMP formation in clitoris CC of female rabbits. Kind of series: cGMP formation in CC of clitoris stimulated with SNP, radioimmunoassay. It is filed as cell-based, rabbit.
Series [6] concerns PDE4 isolated from human liver tissue. Kind of series: Inhibition of cAMP specific PDE4, two-step radioisotope procedure. It is filed as biochemical. How it is done:
PDE5 and PDE4 were isolated from human platelets and liver tissue using a Pharmacia FPLC system and Mono Q column. The cyclic nucleotide PDE5/PDE4 activities in FPLC fractions were determined using a modification of the two-step radioisotope procedure ([^3H]GMP/[^3H]AMP).

With `NC(=NCCC[C@H](N)C(=O)O)N[N+](=O)[O-]` [L-NNA, Nω-nitric-L-arginine], the “icariin induced relaxation of CC smooth muscle strips after pre-treatment with the named inhibitor” value in series [1] (icariin 10^−4M) stood at 15.68 ± 1.15%; in series [1] (icariin 10^−5M) it was 3.23 ± 0.89%; in series [1] (icariin 10^−6M), 0.82 ± 0.58%. Besides, the “effect of pre-treatment on the relaxation effects of icariin” value (from here on “effect of pre-treatment”) in series [1] was “significantly inhibited”.

Turning to `CN(C)c1ccc2nc3ccc(=[N+](C)C)cc-3sc2c1` [Methylene blue, methylene blue], the “icariin induced relaxation of CC smooth muscle strips after pre-treatment with the named inhibitor” value is 13.45 ± 1.12% in series [1] (icariin 10^−4M), 2.02 ± 0.45% in series [1] (icariin 10^−5M) and 0.52 ± 0.68% in series [1] (icariin 10^−6M). In addition, in series [1], the “effect of pre-treatment” value is on record as “significantly inhibited”.

As for `O=c1onc2cnc3ccccc3n12` [ODQ, 1H-[1,2,4]oxadiazolo[4,3,-a]quinoxalin-1-one], the “Inhibiting Effect on Icariin induced Relaxation of CC. (ICP changes)” value in series [2] (ODQ 10^−4M) was 80.24 ± 8.05%; in series [2] (ODQ 10^−5M), 58.45 ± 6.00%; in series [2] (ODQ 10^−6M) it was 23.09 ± 4.29%; in series [2] (ODQ 10^−7M) it was 17.16 ± 1.77%. In addition, the “icariin induced relaxation of CC smooth muscle strips after pre-treatment with the named inhibitor” value in series [1] (icariin 10^−4M) is on record as 10.45 ± 1.08%; in series [1] (icariin 10^−5M) it was 1.85 ± 0.35%; in series [1] (icariin 10^−6M), 0.42 ± 0.48%. In addition, the “effect of pre-treatment” value in series [1] was “significantly inhibited”.

Regarding `COc1ccc(Cc2nccc3cc(OC)c(OC)cc23)cc1OC` [Papaverine, papaverine], the cGMP concentration changes stood at 11.43 ± 65 fmol/mg/min in series [3] (10^−3M), 9.82 ± 2.16 fmol/mg/min in series [3] (10^−4M), 8.92 ± 1.87 fmol/mg/min in series [3] (10^−5M) and 8.66 ± 2.07 fmol/mg/min in series [3] (10^−6M).

For `Oc1cccc(O)c1O` [Pyrogallol, pyrogallol], the “icariin induced relaxation of CC smooth muscle strips after pre-treatment with the named inhibitor” value in series [1] (icariin 10^−4M) is reported as 15.68 ± 1.15%; in series [1] (icariin 10^−5M) it was 3.45 ± 0.73%; in series [1] (icariin 10^−6M), 0.85 ± 0.45%. Also, in series [1], the “effect of pre-treatment” value is on record as “significantly inhibited”.

Take `COC(=O)[C@H]1[C@H]2C[C@@H]3c4[nH]c5cc(OC)ccc5c4CCN3C[C@H]2C[C@@H](OC(=O)c2cc(OC)c(OC)c(OC)c2)[C@@H]1OC` [Reserpine, reserpine]: the “Inhibiting effects on ICP” value in series [2] (Reserpine 10^−4M intracavernosal) was 59.63%; in series [2] (Reserpine 10^−5M intracavernosal), 33.34%; in series [2] (Reserpine 10^−6M intracavernosal), 17.39%; in series [2] (Reserpine 10^−7M intracavernosal), 4.81%. The “sexual dysfunction associated with the agent, % of patients” value in series [4] is listed as 30-40%.

The EC50 is the concentration needed to bring the measured effect to its halfway point. A word on the IC50: it is the midpoint of a concentration-inhibition curve. Low readings indicate higher potency, high ones lower potency. Turning to `CCCc1nn(C)c2c(=O)[nH]c(-c3cc(S(=O)(=O)N4CCN(C)CC4)ccc3OCC)nc12` [Sildenafil], in series [5], the “cGMP concentration in clitoris CC” value was “significantly increased”. Further, the EC50 in series [5] (Oryctolagus cuniculus, stimulated with SNP, read-out: EC50 (cGMP formation, CC of clitoris)) is 310 nM; in series [3] (Oryctolagus cuniculus, read-out: EC50 (cGMP formation, CC of penis)), 310 nM. For the same molecule, in series [6], the IC50 came out at 14600 nM. Moreover, the cGMP concentration changes in series [3] (10^−3M) was determined as 12.35 ± 2.56 fmol/mg/min; in series [3] (10^−4M), 11.98 ± 2.39 fmol/mg/min; in series [3] (10^−5M), 12.69 ± 2.24 fmol/mg/min; in series [3] (10^−6M), 10.65 ± 2.28 fmol/mg/min.

Consider `C[C@](N)(Cc1ccc(O)c(O)c1)C(=O)O` [alpha-methyldopa], for which the “sexual dysfunction associated with the agent, % of patients” value in series [4] was 20-30%.

As for `NS(=O)(=O)c1cc2c(cc1C(F)(F)F)NC(Cc1ccccc1)NS2(=O)=O` (stereo not drawn) [bendrofluazide], the “sexual dysfunction associated with the agent, % of patients” value in series [4] is given as 36%.

Take `Clc1cccc(Cl)c1NC1=NCCN1` [clodidine]: in series [4], the “sexual dysfunction associated with the agent, % of patients” value was 41%.

Take `COc1ccc(-c2oc3c(CC=C(C)C)c(OC4OC(CO)C(O)C(O)C4O)cc(O)c3c(=O)c2OC2OC(C)C(O)C(O)C2OC2OC(CO)C(O)C(O)C2O)cc1` (stereo not drawn) [epimedin A]: the “relaxation effects on CC” value in series [1] was “no significant relaxation effects”.

Take `COc1ccc(-c2oc3c(CC=C(C)C)c(O[C@@H]4O[C@H](CO)[C@@H](O)[C@H](O)[C@H]4O)cc(O)c3c(=O)c2O[C@@H]2O[C@@H](C)[C@H](O)[C@@H](O)[C@H]2O[C@@H]2OC[C@@H](O)[C@H](O)[C@H]2O)cc1` [epimedin B]: in series [1], the “relaxation effects on CC” value is given as “no significant relaxation effects”.

As to `COc1ccc(-c2oc3c(CC=C(C)C)c(O[C@@H]4O[C@H](CO)[C@@H](O)[C@H](O)[C@H]4O)cc(O)c3c(=O)c2O[C@@H]2O[C@@H](C)[C@H](O)[C@@H](O)[C@H]2O[C@@H]2O[C@@H](C)[C@H](O)[C@@H](O)[C@H]2O)cc1` [epimedin C], the “relaxation effects on CC” value in series [1] is “no significant relaxation effects”.

For the molecule `COc1ccc2c(c1O)-c1c(O)c(OC)cc3c1[C@H](C2)[N+](C)(C)CC3` [magnoflorine], the “relaxation effects on CC” value in series [1] was “no significant relaxation effects”.

With `O=c1c(O)c(-c2ccc(O)c(O)c2)oc2cc(O)cc(O)c12` [querectin], in series [1], the “relaxation effects on CC” value is given as “no significant relaxation effects”.
